Consider one substance from patent US20100254940A1, “Compositions and Methods for Regulating an Immune Response in a Subject” (INNATE PHARMA, S.A., priority 2002, published 2010).

The test system of one data set is γδ T cells. The data set can be described thus: Supplementary pharmaco-dynamics studies, consecutive injections of BrHPP in male cynomolgus monkeys. The class given is in vivo. How it is done: We have thus performed other non-GLP pharmaco-dynamics studies in male cynomolgus monkeys in order to further document the features of in vivo γδ T cells response to consecutive injections of BrHPP, varying either the dose or the time-laps between injections.
In vivo amplification was assessed after 4 successive injections of 20 or 80 mg/kg Phosphostim®, 4 or 8 weeks apart.

The subject of a further data set is Vγ9Vδ2 T cells. Description: Expansion of peripheral blood Vγ9Vδ2 T cells from PBMCs of mRCC patients with BrHPP and IL2. It counts as cell-based, human. Conditions: 3 μM BrHPP + IL2, 15 days; 7 patients out of 12. How it is done:
Blood samples from 12 RCC patients (50 ml) were collected just before or no more than 2 months after the nephrectomy. PBMCs were isolated by centrifugation on Ficoll-Hypaque density gradient (Amersham Biosciences). PBMCs from one healthy volunteer was used as control.
Ten million PBMCs were cultured at 2×10^6/ml in 24 well plate in RPMI 1640 supplemented with 10% v/v fetal calf serum (Fetal Clone irradiated, Hyclone).
Polyclonal Vγ9Vδ2 T cell lines were specifically expanded in presence of 3 μM BrHPP molecule (batch INPA-0214) and 100 IU/ml IL2 during 15 days.
Every three days, the volume corresponding to half culture medium was replaced by fresh medium containing only 200 IU/ml IL2
Before in vitro culture, phenotype of 2×10^5 PBMCs from RCC patients was analyzed using the following combinations of fluorescein isothiocyanate (FITC), phycoerythrin (PE) and phycoreythrin-cyanin 5 (PC5) conjugated antibodies to determine the NK, αβ and γδ T cells population (all purchased from Beckman-Coulter): CD3-PC5/Vδ2-FITC/IgG1-PE, CD8-PE, CD56-PE. At day 15 of the culture, a triple staining was performed on the expanded Vδ9Vδ2 T cells bulk. The following antibodies combinations were performed: […]

Another data set deals with Vg9Vd2 cells. Description: EC50 of BrHPP for triggering Vg9Vd2 cells. It counts as cell-based. As to the method: In vitro, we and others (Lang, 1995) have shown that the activation of Vg9Vd2 cells occurs within minutes after the addition of the molecule. Two mechanisms may prevent the molecule to be active in vivo i) the likely rapid renal clearance of such a small molecule and ii) a degradation process in vivo. […] Nevertheless, the concentration of the molecule, injected by intravenous route in relatively high amount, should be maintained beyond the 20 nM EC50 for a significant time, if no additional, blood cell or organ related degradation process occurs in vivo.

The test system of another data set is IFNγ. Description: Serum IFNγ by ELISA after BrHPP injection in cynomolgus monkeys. The class given is in vivo, cynomolgus monkeys (M. fascicularis). How it is done:
Serum cytokines (TNFα and INFg) were detected and quantified with the BIOSOURCE Cytoscreen™ ELISA monkey TNFa and Cytoscreen™ ELISA monkey INFg respectively (purchased from CliniSciences, Montrouge, France) according to the manufacturer's instructions.
Samples of sera were collected from group 2 animals during the first dose range assay (0 to 80 mg/kg) just before injection then 1 and 4 hours post injection, and assayed by ELISA specific for TNFa and IFNg.
Phosphostim was administered i.v., as slow infusions (50 ml in 30 minutes), at various dose levels to five groups of two animals (one male+one female). Males received two successive injections of BrHPP (Day 0 and Day 22) before sacrifice and females four injections (Days 0, 22, 52 and 84). Two females, selected upon their level of response to the 4th treatment, received a supplementary injection of BrHPP alone at Day 91, during γδ cell peripheral increase, for systemic cytokine dosages.
In general terms: In an ELISA, binding on a coated surface is turned into a signal by an enzyme label.

A short description of data set [1]: Two week repeated dose toxicity study in rats, i.v. BrHPP. The class given is in vivo, Sprague-Dawley rats. How it is done:
The objective of this GLP study was to evaluate the potential toxicity of BrHPP following daily i.v. administration in rats for two weeks. 116 Sprague-Dawley rats were allocated into four groups: one control group (Group 1) with 10 males and 10 females and three treatment groups (Groups 2 to 4) with 10 males and 10 females. Group 2, 3 and 4 were administered respectively 80, 150 and 300 mg/kg/day (respectively 48, 90 and 180 mg/kg in anionic form equivalent) of BrHPP. […] Satellite animals were allocated for toxico-kinetics purposes.
BrHPP was administered daily by slow intravenous injection (0.4 mL/min) as a solution in sterile water for injection and Ringer lactate at the dose levels of 80, 150 or 300 mg/kg/day. The control group received the vehicle (together with 1% sodium to reach an osmolarity similar to the high-dose group dosage forms) under the same experimental conditions. A constant dosage-volume of 5 mL/kg was used.
The animals were checked daily for mortality and clinical signs. Body weight and food consumption were recorded twice a week. Opthalmologic examination was performed before and at the end of the treatment period. Blood samples for determination of levels of BrHPP were taken from satellite animals on Day 1 and at the end of the treatment period. Vaginal lavage was performed in females during pre-treatment and at the end of the treatment period for monitoring of estrous cycle. Hematological, blood biochemical and urinalysis investigations were performed on all principal animals at the end of week 2. On completion of the study, all animals were killed and subjected to a macroscopic post mortem examination and specified organs were weighed and preserved. Microscopic examination was performed on selected tissues from animals of the control and the 300 mg/kg/day groups.

For “3-(bromomethyl)-3-butanol-1-yl-diphosphate [BrHPP]”, the “in vivo amplification of γδ cells” value with γδ T cells (4 successive injections of 20 or 80 mg/kg Phosphostim, 4 or 8 weeks apart) is recorded as “repeated increases of γδ cells”. Also, the “γδ cell rate and absolute count in the periphery” value with γδ T cells (at least 3 successive injections, 8 weeks apart, 20 or 80 mg/kg, males) was “significant increases”. In addition, in the data set on γδ T cells (at least 4 successive injections, 4 weeks apart, 20 mg/kg, males), the “γδ cell rate and absolute count” value is reported as “detectable increases”. Besides, in the data set on Vγ9Vδ2 T cells, the “patients presenting a Vγ9Vδ2 T cells amplification” value is reported as 58%. Besides, in the data set on Vg9Vd2 cells, a half-maximal response (EC50) required 20 nM. In addition, the “IFNg in the sera” value with IFNγ (fifth injection 80 mg/kg without IL2 at peak after fourth injection) is “detectable at one hour post injection, and increased at 4 hours post injection”. Further, in the data set with IFNγ (first dose range assay 0 to 80 mg/kg, 1 and 4 hours post injection), the “Assessment of IFNγ” value is recorded as “Did not Give Significant Results”. Further, in data set [1] (300 mg/kg/day), the “microscopic examination, other organs and tissues” value was “No relevant findings were seen in other organs and tissues”. The opthalmologic findings entry in data set [1] (300 mg/kg/day, end of treatment) was “No relevant opthalmologic findings”. The mortality entry in data set [1] (80, 150, 300 mg/kg/day i.v. two weeks) is recorded as “No unscheduled death occurred”. For the same substance, the “clinical signs during dosing” value in data set [1] (150 and 300 mg/kg/day) was “Vocalization during dosing was noted on many occasions”. In data set [1] (both control and BrHPP-treated, attributed to mechanical injury), the “microscopic examination, tail vein” value is “slight changes were observed in the tail vein”. In data set [1] (end of treatment), the macroscopic post-mortem examination entry was “No relevant findings were noted” and the organ weights entry is “No relevant differences in organ weights from controls”. For the same substance, the “hematological, biochemical or urinary parameter” value in data set [1] (end of week 2) is “No changes of toxicological significance”. Further, in data set [1] (females), the “mean body weight gain” value is “Dose-related higher mean body weight gain”. Also, in data set [1] (highest tested dose), the “NOAEL in anionic form equivalent” value is given as 180 mg/kg and the “No Observed Adverse Effect Level (NOAEL)” value came to 300 mg/kg/day.
